The target of this assay is T1, acetylcholinesterase enzyme from Electrophoruselectricus (AChE enzyme from electric eel) (Electrophorus electricus, UniProt O42275).
T1 construct: purchased Sigma
As to the kind of experiment: biochemical. On the procedure:
Cholinesterase inhibitory activity of the synthesized compounds was evaluated using the Ellman's microplate assay. For acetylcholinesterase (AChE) inhibitory assay, 140 μL of 0.1 M sodium phosphate buffer (pH 8) was first added to a 96-well microplate followed by 20 μL of test samples and 20 μL of 0.09 units/mL acetylcholinesterase enzyme from Electrophoruselectricus (Sigma). After 15 minutes of incubation at 25°C, 10 μL of 10 mM 5,5′-dithiobis-2-nitrobenzoic acid (DTNB) was added into each well followed by 10 μL of acetylthiocholine iodide (14 mM). At 30 minutes after the initiation of enzymatic reaction, absorbance of the colored end-product was measured using BioTek Power Wave X 340 Microplate Spectrophotometer at 412 nm.
Galantamine was used as positive control. Test samples and galantamine were prepared in DMSO at an initial concentration of 1 mg/mL (1000 ppm). The concentration of DMSO in final reaction mixture was 1%.
The initial screening was carried out at 10 μg/mL of test samples in 1% DMSO and each test was conducted in triplicate. Absorbencies of the test samples were corrected by subtracting the absorbance of their respective blank. Percentage enzyme inhibition is calculated using the following formula: (1) Percentage of inhibition =[…]/Absorbance of control×100. Subsequently, the determination of IC50 was carried out using a set of five concentrations.
All newly synthesized 1,6-naphthyridines were evaluated in vitro for their inhibitory potential against AChE enzyme from electric eel using colorimetric Ellman's method (Table 1).

The mark [1] stands for this setting: Ellman's method, AChE from electric eel, triplicate, five concentrations, read-out: AChE inhibition (IC50 ± SD).

From PMC4325472, “An Expedient Synthesis, Acetylcholinesterase Inhibitory Activity, and Molecular Modeling Study of Highly Functionalized Hexahydro-1,6-naphthyridines” (BioMed Research International, 2015) come the findings set out here.

Each structure is given as a SMILES string. Read-outs that look alike come from different tables or passages of the source.

T1 sequence (O42275 24-633): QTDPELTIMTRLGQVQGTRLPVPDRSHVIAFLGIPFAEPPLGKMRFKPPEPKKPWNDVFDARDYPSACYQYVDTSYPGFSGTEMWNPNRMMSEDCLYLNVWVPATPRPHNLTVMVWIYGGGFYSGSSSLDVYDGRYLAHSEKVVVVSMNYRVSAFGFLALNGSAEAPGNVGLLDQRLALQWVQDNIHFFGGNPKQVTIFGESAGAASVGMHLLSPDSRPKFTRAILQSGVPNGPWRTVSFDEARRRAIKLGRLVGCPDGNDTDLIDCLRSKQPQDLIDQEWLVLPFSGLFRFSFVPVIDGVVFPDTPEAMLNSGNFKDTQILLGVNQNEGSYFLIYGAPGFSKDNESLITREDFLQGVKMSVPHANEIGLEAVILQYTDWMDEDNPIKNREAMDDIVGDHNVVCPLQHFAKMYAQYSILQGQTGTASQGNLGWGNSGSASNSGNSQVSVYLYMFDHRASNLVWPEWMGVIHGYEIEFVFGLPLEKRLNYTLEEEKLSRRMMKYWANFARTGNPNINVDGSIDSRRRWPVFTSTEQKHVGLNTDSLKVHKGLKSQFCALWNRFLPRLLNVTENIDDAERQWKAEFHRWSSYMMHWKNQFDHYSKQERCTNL

As to `Cc1ccccc1/C=C1\CNCc2c1[nH]c(=O)c(C#N)c2-c1ccccc1C` [4b, (E)-8-(2-Methylbenzylidene)-2-oxo-4-(o-tolyl)-1,2,5,6,7,8-hexahydro-1,6-naphthyridine-3-carbonitrile], the IC50 (as a rule, the concentration at which inhibition is half-maximal) under setting [1] worked out at 7.2 ± 0.02 µM.
The same measure, in the same setting: next, `Cc1ccc(/C=C2\CNCc3c2[nH]c(=O)c(C#N)c3-c2ccc(C)cc2)cc1` [4h, (E)-8-(4-Methylbenzylidene)-2-oxo-4-(p-tolyl)-1,2,5,6,7,8-hexahydro-1,6-naphthyridine-3-carbonitrile]: 7.16 ± 0.02 µM.
`N#Cc1c(-c2cccc([N+](=O)[O-])c2)c2c([nH]c1=O)/C(=C/c1cccc([N+](=O)[O-])c1)CNC2` [4g, (E)-8-(3-Nitrobenzylidene)-4-(3-nitrophenyl)-2-oxo-1,2,5,6,7,8-hexahydro-1,6-naphthyridine-3-carbonitrile] came in with an IC50 of 16.86 ± 0.02 µM.
As for `N#Cc1c(-c2ccc(Cl)cc2)c2c([nH]c1=O)/C(=C/c1ccc(Cl)cc1)CNC2` [4i, (E)-8-(4-Chlorobenzylidene)-4-(4-chlorophenyl)-2-oxo-1,2,5,6,7,8-hexahydro-1,6-naphthyridine-3-carbonitrile], under setting [1], the IC50 came to 3.86 ± 0.02 µM.
`N#Cc1c(-c2ccccc2)c2c([nH]c1=O)/C(=C/c1ccccc1)CNC2` [4a, (E)-8-Benzylidene-2-oxo-4-phenyl-1,2,5,6,7,8-hexahydro-1,6-naphthyridine-3-carbonitrile]: the half-inhibitory concentration (IC50) under setting [1] was determined as 11.18 ± 0.02 µM.
For the compound `N#Cc1c(-c2ccc(Cl)cc2Cl)c2c([nH]c1=O)/C(=C/c1ccc(Cl)cc1Cl)CNC2` [4f, (E)-8-(2,4-Dichlorobenzylidene)-4-(2,4-dichlorophenyl)-2-oxo-1,2,5,6,7,8-hexahydro-1,6-naphthyridine-3-carbonitrile], the IC50 under setting [1] was 24.72 ± 0.01 µM.
For `N#Cc1c(-c2cccc3ccccc23)c2c([nH]c1=O)/C(=C/c1cccc3ccccc13)CNC2` [4k, (E)-4-(Naphthalen-1-yl)-8-(naphthalen-1-ylmethylene)-2-oxo-1,2,5,6,7,8-hexahydro-1,6-naphthyridine-3-carbonitrile], the IC50 under setting [1] stood at 6.86 ± 0.02 µM.
Turning to `N#Cc1c(-c2ccc(F)cc2)c2c([nH]c1=O)/C(=C/c1ccc(F)cc1)CNC2` [4j, (E)-8-(4-Fluorobenzylidene)-4-(4-fluorophenyl)-2-oxo-1,2,5,6,7,8-hexahydro-1,6-naphthyridine-3-carbonitrile], the IC50 under setting [1] was found to be 14.16 ± 0.02 µM.
Turning to `COc1ccccc1/C=C1\CNCc2c1[nH]c(=O)c(C#N)c2-c1ccccc1OC` [4e, (E)-8-(2-Methoxybenzylidene)-4-(2-methoxyphenyl)-2-oxo-1,2,5,6,7,8-hexahydro-1,6-naphthyridine-3-carbonitrile], the IC50 under setting [1] is 2.12 ± 0.02 µM.
With `N#Cc1c(-c2ccccc2Cl)c2c([nH]c1=O)/C(=C/c1ccccc1Cl)CNC2` [4c, (E)-8-(2-Chlorobenzylidene)-4-(2-chlorophenyl)-2-oxo-1,2,5,6,7,8-hexahydro-1,6-naphthyridine-3-carbonitrile], the IC50 under setting [1] amounted to 15.21 ± 0.1 µM.
For `N#Cc1c(-c2ccccc2Br)c2c([nH]c1=O)/C(=C/c1ccccc1Br)CNC2` [4d, (E)-8-(2-Bromobenzylidene)-4-(2-bromophenyl)-2-oxo-1,2,5,6,7,8-hexahydro-1,6-naphthyridine-3-carbonitrile], the IC50 under setting [1] is 18.16 ± 0.02 µM.
